Laboratory results taken from the NIST ThermoML archive (doi:10.1021/acs.jced.5b00710).
Numbers after ± are expanded uncertainties.

Assay: an = ratio of the nth substance listed
Settings: 298.15 K; 101 kPa; Liquid; Cone and plate viscometry; a1 = 1

Work on `CCCCCCCCCCCCCC[P+](CCCCCC)(CCCCCC)CCCCCC.O=S(=O)([N-]S(=O)(=O)C(F)(F)F)C(F)(F)F` + NCCO yielded a viscosity of 90 ± 2 mPa·s.
